Consider four compounds from PubChem BioAssay (NCI).

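The compound was tested at five concentrations on cells cultured in 96-well plates, with a 48-hour exposure period. GI50 = concentration required for 50% inhibition of growth. The concentration for full growth arrest is given as TGI.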

Assay in all cases: DTP human tumour cell line panel, 48 h
For assay [1], the system named is NCI-H226 lung.
The test system of assay [2] is OVCAR-5 ovarian.
In assay [3] the test system is HT29 colon.
Assay [4] relates to OVCAR-8 ovarian.
Assay [5] relates to SK-MEL-5 melanoma.
Assay [6] has as its system DU-145 prostate.
Assay [7] deals with SNB-75 CNS.
The subject of assay [8] is MOLT-4 leukemia.
The subject of assay [9] is SK-MEL-28 melanoma.
Assay [10] relates to COLO 205 colon.

With `O=C(Nc1cccc(C(F)(F)F)c1)Nc1ccc(OCc2nnc(-c3ccccc3)o2)c(F)c1`, the GI50 in assay [1] was 10.7 µM; in assay [2], 18.9 µM; in assay [3], 5.08 µM; in assay [4], 5.19 µM; in assay [5], 5.71 µM; in assay [6], 6.06 µM. In addition, the GI50 is 0.645 µM in [7], 3.59 µM in assay [8], 10.3 µM in [9] and 2.47 µM in assay [10]. The TGI in assay [1] was 52 µM; in assay [2] it was over 100 µM; in assay [3] it was 58.5 µM; in [4], 32.1 µM; in [5] it was 21.3 µM; in assay [6], 28.3 µM. Besides, the TGI in assay [7] amounted to 5.81 µM; in assay [8], 39.8 µM; in assay [9], 66.5 µM; in assay [10], 10.6 µM.

For the compound `CC(=O)Nc1ccc(C(=O)COc2cccc(/C=C3\CCc4ccccc4C3=O)c2)cc1`, the GI50 is 16.3 µM in assay [1]; 19.6 µM in assay [2]; 18.7 µM in assay [3]; 23.6 µM in [4]; 2.9 µM in [5]; 19.2 µM in assay [6]. Besides, the GI50 is 13 µM in [7], 4.3 µM in [8], 20.3 µM in assay [9] and 17.2 µM in assay [10]. The concentration for total growth inhibition (TGI) is over 100 µM in [1]; 36.3 µM in assay [2]; over 100 µM in assay [3]; over 100 µM in assay [4]; 11 µM in [5]; 53 µM in assay [6]. Besides, the TGI in [7] was found to be 64.7 µM; in assay [8], 20.9 µM; in [9], 37.8 µM; in assay [10], 34.5 µM.

As for `Nc1ccc(N)c2c1C(=O)c1cccc([N+](=O)[O-])c1C2=O`, the 50% growth inhibitory concentration (GI50) in [1] was 0.312 µM; in assay [2], 8.19 µM; in assay [3], 5.6 µM; in assay [4] it was 2.67 µM; in assay [5] it was 1.43 µM; in assay [6] it was 0.662 µM. Besides, the GI50 in assay [7] was 2.13 µM; in assay [8] it was 8.33 µM; in [9] it was 11.5 µM; in assay [10], 4.17 µM. Besides, the TGI in [2] was over 100 µM; in [3] it was over 100 µM; in assay [4], 19.7 µM; in assay [5] it was 3.76 µM; in assay [6], 6.9 µM; in assay [7], 24.5 µM. Moreover, the results for the concentration for total growth inhibition (TGI) in assay [8], in [9] and in [10] were over 91.4 µM, over 100 µM and over 55.4 µM, respectively.

In the case of `CC(C)c1nc(Cl)c(Cl)c(Cl)n1`, the TGI in assay [1] was 38.9 µM; in assay [2] it was 17.7 µM; in [3] it was 17.9 µM; in assay [4], 8.07 µM; in [5], 30.9 µM; in assay [6] it was 20.3 µM. In addition, the concentration for total growth inhibition (TGI) in [7] came out at 25.8 µM; in [8], 11.4 µM; in [9], 40.5 µM; in [10], 11.9 µM.

Usually GI50 stands for the concentration at which growth is held to half of that of the control. Usually TGI stands for the concentration giving total growth inhibition. High values mean lower sensitivity of the cells, low ones greater sensitivity of the cells.
